Common to all, as to assay: growth of human tumour cells (NCI), 48 h
The subject of assay [1] is HCC-2998 colon.
Assay [2] has as its system HCT-116 colon.
Assay [3] concerns HS 578T breast.
The test system of assay [4] is LOX IMVI melanoma.
The subject of assay [5] is MCF7 breast.
The test system of assay [6] is MDA-MB-231 breast.
The test system of assay [7] is NCI-H23 lung.
Assay [8] relates to RPMI-8226 leukemia.
Assay [9] has as its system SNB-75 CNS.
Assay [10] relates to UACC-257 melanoma.

Several values for one entry are separate records, joined by “and”; a condition that tells them apart may be missing. Identical values can stand only once.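 Test compounds were applied to cells in 96-well plates for 48 hours at 5 doses. GI50 marks 50% less growth. TGI is the concentration that stops growth completely.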 Where only a bound is given, the exact number is not on record here.

Take `CCN(CC)CCC(CNc1ccnc2cc(Cl)ccc12)c1ccc(OC)cc1` (stereo not given): the GI50 is 3.5 µM and 2.44 µM in assay [1]; 5.15 µM and 1.87 µM in [2]; 5.51 µM and 7.53 µM in assay [3]; 1.88 µM and 1.6 µM in [4]; 4.98 µM and 4.5 µM in assay [5]; 2.34 µM and 2.42 µM in assay [6]. The GI50 was 9.4 µM and 10 µM in assay [7]; 7.14 µM and 2.12 µM in assay [8]; 3.39 µM and 2.35 µM in [9]; 2.19 µM and 1.72 µM in assay [10]. The TGI was 16.2 µM and 6.32 µM in [1]; 24.7 µM and 14.4 µM in assay [2]; 23.4 µM and 34.3 µM in assay [3]; 4.79 µM and 4.15 µM in [4]; 21.1 µM and 17.9 µM in assay [5]; 11.2 µM and 10.9 µM in assay [6]. The TGI is 26.9 µM and 28.6 µM in assay [7]; 35.5 µM and 8.15 µM in [8]; 17.3 µM and 7.84 µM in assay [9]; 3.96 µM and 3.48 µM in [10].

Turning to `C=COCCCOc1ccccc1`, the TGI in [1], in assay [2], in assay [3], in assay [4], in assay [5] and in assay [6] was over 100 µM in each case. For the same compound, the TGI in [7], in assay [8], in [9] and in [10] was over 100 µM each time. Also, the GI50 in assay [3], in [5], in assay [6], in assay [9] and in [10] was over 100 µM throughout.

As to `O=C(Nc1ccc(Cl)cc1F)c1ccccc1O`, the GI50 was 3.07 µM in assay [1]; 3.15 µM in [2]; 2.68 µM in assay [3]; 2.95 µM in [4]; 1.5 µM in assay [5]; 1.44 µM in [6]. The GI50 in assay [7] is 2.12 µM; in assay [8] it was 1.97 µM; in assay [9], 3.26 µM; in assay [10], 2.9 µM. In addition, the TGI was 13.1 µM in assay [1]; 11.3 µM in assay [2]; 23.2 µM in assay [3]; 10.4 µM in [4]; 12.6 µM in [5]; 3.79 µM in assay [6]. The TGI in assay [7] was 6.13 µM; in [8], 7.32 µM; in assay [9], over 100 µM; in assay [10], 8.86 µM.

On to `COc1cc(C2CC(c3cccc(Br)c3)=NN2C(C)=O)cc(OC)c1OC` (stereo not given), for which the GI50 in [1] is 1.11 µM; in assay [2] it was 0.479 µM; in assay [3], 0.397 µM; in assay [4], 0.719 µM; in [5], 0.208 µM; in assay [6] it was 1.67 µM. Also, the GI50 is 1.66 µM in assay [7], 0.181 µM in assay [8], 0.368 µM in [9] and 25.3 µM in [10]. The TGI is 15.7 µM in assay [1]; over 55.9 µM in assay [2]; over 100 µM in [3]; 57.3 µM in assay [4]; 27.1 µM in assay [5]; over 46 µM in assay [6]. The TGI is over 81.3 µM in assay [7], 0.67 µM in [8], over 100 µM in assay [9] and over 84.1 µM in [10].

Consider `C=CCCCCC/C=C\[C@H](O)C#CC#C/C=C/CO`, for which the GI50 in assay [1] was 12.5 µM; in assay [2], 22.6 µM; in assay [3], 45.4 µM; in [4], 16.4 µM; in assay [5], 38.5 µM; in [6], 14.5 µM. Besides, the GI50 in assay [7] was 22.6 µM; in assay [8] it was 14 µM; in [9], over 100 µM; in assay [10], 78.9 µM. Further, the TGI in [1] was 25.1 µM; in assay [2], 48.6 µM; in [3], over 100 µM; in assay [4] it was 29.9 µM; in assay [5], over 100 µM; in [6] it was 33.8 µM. In addition, the TGI in assay [7] was 50.9 µM; in [8], 32.2 µM; in [9], over 100 µM; in assay [10] it was over 100 µM.

Regarding `CCN(CC)CCCC(CNc1ccnc2cc(Cl)ccc12)c1ccc(Cl)cc1` (stereo not given), the GI50 was 1.42 µM and 0.834 µM in [1]; 1.54 µM and 0.925 µM in assay [2]; 1.76 µM and 1.97 µM in [3]; 0.764 µM and 0.353 µM in [4]; 1.31 µM and 1.24 µM in [5]; 1.41 µM and 1.54 µM in assay [6]. Moreover, the GI50 in [7] was 1.87 µM and 2.01 µM; in assay [8], 1.36 µM and 0.59 µM; in assay [9], 1.58 µM and 1.4 µM; in [10], 1.97 µM and 0.583 µM. The TGI in [1] was 2.96 µM and 2.21 µM; in assay [2], 6.12 µM and 2.36 µM; in assay [3] it was 3.82 µM and 4.46 µM; in assay [4] it was 2.13 µM and 1.36 µM; in assay [5], 3.15 µM and 2.71 µM; in assay [6], 3.21 µM and 3.32 µM. In addition, the TGI in assay [7] is 4.42 µM and 5.93 µM; in assay [8], 4.79 µM and 2.69 µM; in assay [9] it was 3.18 µM and 2.85 µM; in [10] it was 3.74 µM and 1.61 µM.

The record behind these values is PubChem BioAssay (NCI).
